The values below come from US20220267269A1, “COMPOUNDS FOR THE MODULATION OF PROPROTEIN CONVERTASE SUBTILISIN/KEXIN TYPE 9 (PCSK9)” (SRX Cardio, LLC, priority 2019, published 2022).

The nature of data set [1]: Dissolution in dosing vehicle. Format: physicochemical. Conditions: 1% Tween-80 aqueous solution, 10-15 minutes sonication. As for the experimental part: (§1) A representative compound (Compound 1041) was tested for oral bioavailability and efficacy in mice. Male C57BL/6 mice were purchased from Taconic Biosciences (Rensselaer, New York) and housed under standard conditions with the exception of being provided a high fat diet (#TD.90221, Envigo, Madison, Wis.) and water ad libitum. Following 4 weeks of diet acclimation the animals were then dosed with compound or vehicle as control specimens. Compound readily dissolved at 1.5 mg/ml in a 1% Tween-80 aqueous solution with 10-15 minutes sonication. This solution was used at the 1.5 mg/ml concentration for oral (PO) dosing or further diluted with sterile saline for intravenous (IV) dosing.

The nature of data set [2]: In vivo PK in mice (IV and PO). Conditions: male, C57BL/6, mouse, plasma. The method, then:
as §1
Test animals received a single dose at 3 mg/kg by IV or 15 mg/kg by PO while control animals received an equal volume of vehicle control by IV or PO, respectively. Plasma samples were collected at 0.25, […], 1, 2, 3, 6, 8, 24, and 48 hours while liver specimens were collected at 8, 24, and 48 hours and drug concentration were measured by LC-MS/MS per standard protocols.
In brief, blood was immediately centrifuged, and the resulting plasma was frozen and stored at −80° C. until analysis. […] Compound concentrations were determined by a liquid chromatography-mass tandem spectrometry (LC-MS/MS) per routine method (Quintara Discovery, Hayward, Calif.) following the standard protocol. […]

Data set [3] concerns Male C57BL/6 mice. Put plainly: Liver panel in high fat diet mice. Format: in vivo. As for the experimental part:
as §1
To assess animal health following compound exposure, a liver panel (Test Code #60405) was tested by IDEXX BioAnalytics (North Grafton, Mass.). […] Also of note, AST and ALT levels in the liver panel were elevated in the PO vehicle, which is attributed to the high fat diet used in the study (Envigo, #TD.90221).

For data set [4], the target named is T1, PCSK9 (Homo sapiens, UniProt Q8NBP7).
T1 construct: purchased Cayman Chemical 20631
T1 sequence (Q8NBP7 153-692): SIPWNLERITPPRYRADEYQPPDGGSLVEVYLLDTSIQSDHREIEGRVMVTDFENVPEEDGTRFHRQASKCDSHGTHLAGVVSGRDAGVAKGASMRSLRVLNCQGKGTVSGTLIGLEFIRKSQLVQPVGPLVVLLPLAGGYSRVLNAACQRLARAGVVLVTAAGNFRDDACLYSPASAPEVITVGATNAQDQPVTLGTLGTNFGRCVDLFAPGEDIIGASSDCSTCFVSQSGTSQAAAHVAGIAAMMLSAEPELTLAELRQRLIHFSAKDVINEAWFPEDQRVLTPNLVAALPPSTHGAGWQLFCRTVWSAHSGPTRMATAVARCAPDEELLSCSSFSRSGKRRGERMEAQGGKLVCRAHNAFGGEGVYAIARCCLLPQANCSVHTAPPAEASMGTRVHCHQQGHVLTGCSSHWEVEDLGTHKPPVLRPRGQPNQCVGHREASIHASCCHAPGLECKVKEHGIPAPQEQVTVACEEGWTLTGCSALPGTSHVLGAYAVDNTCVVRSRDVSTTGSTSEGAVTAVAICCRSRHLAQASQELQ
The data set is described as follows: Fluorescent-LDL uptake analysis by flow cytometric analysis. Format: cell-based. As for the experimental part: Cells, such as HuH7, FL83B, or a cell line transfected with a short-hairpin PCSK9 knockdown sequence such as HuH7/shPCSK9 or FL83B/shPCSK9 were plated and cultured at 37° C. for 12-24 h. Culture media was removed and replaced with fresh lipoprotein-depleted culture media supplemented with 5 μg/mL of fluorescently labeled LDL or lipoprotein-depleted culture media supplemented with 5 μg/mL of fluorescently labeled LDL plus a concentration of recombinant PCSK9 (for example 5 μg/mL recombinant PCSK9; Cayman Chemical, Cat. #20631). Examples of fluorescently labeled LDL include: DiI-LDL (Kalen Biomedical), or LDL conjugated to Dylight (e.g., LDL-Dylight 488, or LDL-Dylight 550 (Cayman Chemical, Cat. #10011229)). Lipoprotein-depleted culture media was composed of DMEM (Invitrogen) with 10% lipoprotein-depleted fetal bovine serum (Kalen Biomedical) and supplemented with penicillin-streptomycin (Life Technologies). Cells were dosed with small molecule test compounds at doses ranging from 0 nM to 100 μM, following a protocol adapted from Benjannet et al., “Effects of the prosegment and pH on the activity of PCSK9: evidence for additional processing events” J Biol Chem. 285(52):40965-40978 (2010), which is incorporated by reference in its entirety.
Following an incubation period of specified length, such as 16 hours, the lipoprotein-depleted media was removed and cells rinsed three times with a rinse solution (Dulbecco's phosphate buffered saline (D-PBS, Life Technologies), supplemented with 0.5% bovine serum albumin (BSA, Sigma) and 1 g/L glucose (Sigma)). The fluid was then removed, and cells are released from the plate using TrypLE Express (Life Technologies) per manufacturer's recommended procedures, such as incubation for 5-10 minutes at 37° C. The TyrpLE-Cell suspension was then transferred to 15 mL conical tubes, volume was increased to 2 mL with D-PBS supplemented with 0.5% BSA, and […], and the tubes were centrifuged at 250×gravity for 10 minutes. Following centrifugation, the supernatant was aspirated and the cell pellet was resuspended in 300 μL PBS and counterstained with 4′,6-diamidino-2-phenylindole (DAPI, Cayman Chemical) as a cell viability marker, other cell viability markers such as 7-aminoactinomycin D (7AAD, Life Technologies) have also been described in the art.
Cells were analyzed by for both 7AAD (dead cells) and fluorescent LDL in live cells using a flow cytometer per the manufacturer's operating manual. Cells incubated with small molecule compounds that are inhibitors of PCSK9 will be expected to show increased amounts of LDL fluorescence, relative to control (no compound) specimens, and cells incubated with small molecule compounds that are activators of PCSK9 will be expected to show decreased amounts of LDL fluorescence relative to control (no compound) specimens.
The LDL-uptake EC50 is provided as follows: +++: <0.5 μM; ++: 0.5-1μM; +: >1 μM.
(A flow cytometer gives signals particle by particle.)

[5] abbreviates: daily 15 mg/kg PO, 72-hour group, versus vehicle control.

As usually defined, the half-life is the time needed for the level to fall by half in the phase considered. As usually defined, the EC50 is the concentration that produces a half-maximal response. High values mean a need for much substance, low ones an effect from little substance.

The structures appear in SMILES notation.

With `Cc1cc(-c2ccc(F)cc2)ccc1C1CCCN(C2CCCC2)C1` (stereo not shown) [Compound 1,041, 1-cyclopentyl-3-(4′-fluoro-3-methyl-[1,1′-biphenyl]-4-yl)piperidine], in data set [1], the dissolved concentration was at least 1.5 mg/mL. This compound gave a half-life in data set [2] (IV 3 mg/kg) of 4.8 h. Besides, in data set [2] (PO 15 mg/kg), the half-life is 9.8 h. Further, in data set [3] (setting [5]), the “reduction in ALT levels” value was found to be 77.7% and the “reduction in AST levels” value came to 72.1%. Moreover, the liver panel toxicity result in data set [3] (three daily 15 mg/kg PO doses, 72 hours, versus PO vehicle) is reported as “no overt toxicity”. Moreover, the EC50 in data set [4] was in the range of 0.5 to 1 µM.
